Reference: ChEMBL document CHEMBL1136194, “Discovery and evaluation of 3-(5-thien-3-ylpyridin-3-yl)-1H-indoles as a novel class of KDR kinase inhibitors” (Bioorg Med Chem Lett, 2003)
Values after ≈ are worked out from the molar mass of the structure shown.

Tests used:
[1] = Solubility was determined; assay type: physicochemical
[2] = Partition coefficient (logP); assay type: physicochemical; conditions: octanol/water
[3] = Pharmacokinetic property (Vdss) for the compound (5 mg/kg iv) was determined in rats; assay type: ADME, organism-based; conditions: rat, in vivo, read-out: Vdss
[4] = Oral bioavailability in rat (dose 20 mg/kg p.o.); assay type: ADME, organism-based; conditions: in vivo
[5] = Pharmacokinetic property (Clearance) for the compound (5 mg/kg iv) was determined in rats; assay type: ADME, organism-based; conditions: rat, in vivo
[6] = Pharmacokinetic property (t1/2) for the compound ([…] mg/kg iv) was determined in rats; assay type: ADME, organism-based; conditions: rat, in vivo, 5 mg/kg
[7] = Solubility at pH 7.4 was determined; assay type: physicochemical; conditions: buffer
[8] = Solubility at pH 5.2 was determined; assay type: physicochemical; conditions: buffer

Structure (SMILES): CC(=O)Nc1oc(-c2cc3ccccc3cc2O)nc1-c1ccccc1
- solubility [1]: < 5 µg/mL
- logP [2]: > 4.1

Structure (SMILES): c1ccc2c(c1)c(-c1cncc(-c3ccsc3)c1)cn2CCN1CCOCC1
- Vd [3]: 7.2 L/kg
- bioavailability [4]: 35%
- clearance [5]: 65 mL/min/kg
- half-life [6]: 1.9 h
- solubility [7]: 5 µg/mL (≈ 12.8 µM)
- solubility [8]: 24 µg/mL (≈ 61.6 µM)
- logP [2]: 3.3

Structure (SMILES): c1ccc2c(c1)c(-c1cncc(-c3ccsc3)c1)cn2CCCN1CCCCC1
- Vd [3]: 1.8 L/kg
- bioavailability [4]: 28%
- clearance [5]: 15 mL/min/kg
- half-life [6]: 1.6 h
- solubility [7]: < 5 µg/mL
- solubility [8]: 177 µg/mL (≈ 441 µM)

Structure (SMILES): CN1CCN(CCCn2cc(-c3cncc(-c4ccsc4)c3)c3ccccc32)CC1
- Vd [3]: 1.7 L/kg
- bioavailability [4]: 33%
- clearance [5]: 13 mL/min/kg
- half-life [6]: 1.8 h
- solubility [7]: > 205 µg/mL
- solubility [8]: 18200 µg/mL (≈ 43600 µM)
- logP [2]: 3.7
